These results are taken from paper PMC12530842, “Potent, Selective, and Drug‐Like G Protein‐Coupled Receptor Kinase 5 and 6 Inhibitors: Design, Synthesis, and X‐Ray Structural Studies” (Chemmedchem, 2025).

Holding throughout (format): biochemical
Experiment [1] concerns the target T1, GRK5 (Homo sapiens, UniProt P34947).
T1 construct: Human GR K5 (residues 1- 590) w ild- type and D 311N mutant w ere expressed in E. co li Rosetta; His tag (inferred from nickel-NTA purification); made in house; host or cells: E. coli Rosetta (DE3)
Kind of experiment: GRK5 kinase inhibition assay, phosphorylation of tubulin ([γ-32P]-ATP). As to conditions: for Selectivity GRK2/GRK5: fold selectivity for GRK5 over GRK2; for IC50: phosphorylation of the soluble substrate tubulin, ± standard deviation from 3 to 4 independent experiments. Here is the method:
(§1) The inhibitory potency of synthetic compounds containing the N‐heterocyclic amide functionalities was evaluated against human GRK2, GRK5 and GRK6 using our in vitro assays‐, as reported previously.^[ [35], [37] ^] […] We then investigated the effect of (R)‐ and (S)‐Boc pyrrolidine carboxamide derivatives. […] These improvements of GRK5 IC50 values over their Boc‐derivatives (6c and 6d) indicated the bulky Boc group may not be able to fit as well in the catalytic site of these GRKs. On the other hand, sterically less demanding acetamide derivatives 6e and 6f were well accommodated consistent with their very good activity against GRK5, GRK6, and GRK2, but only with marginal selectivity against GRK2. […] We also examined the effect of 3(S)‐ and 3(R)‐Boc‐pyrrolidine derivatives.
(§2) Protein expression and purification.
(§3) Human GR K5 (residues 1- 590) w ild- type and D 311N mutant w ere expressed in E. co li Rosetta (D E3) and purified v ia nickel-nitrilotriacetic acid affinity chromatography, followed by tandem columns consisting of a HiTrap Q HP anion exchange chromatography column and a HiTrap SP HP cation exchange chromatography column, and finished by Superdex 200 Increase size -exclusion chromatography, as described previously. Human GRK6 (with T10A and mutations that eliminate palmitoylation sites) was expressed in Sf9 insect cells [ 2] and was purified w ith the same protocol for GR K5 [1]. Human GRK2 w as purified as described previously.
(§4) Kinase inhibition Assays.
(§5) Inhibit ion assays were conducted in a reaction mixture containing 20 mM H EPES pH 7. 0, 2 mM MgC l2, and 0.025% n- dodecyl-β-D-maltoside. Prior to reaction initiation, GR K5 or GR K6 at 50 nM was mixed w ith porcine brain tubulin ( PurSolutions) at a concentration of 500 nM. The assay w as started w ith a 30- second incubation of inhibitors, followed by the add it ion of 5 μ M ATP supplemented w ith radioactive [γ-32P]-AT P a t 60 C i/m mol (PerkinElm er Life Sciences). Re actions pro ceeded for 5 m inut es at ro o m te mpera ture a nd were terminated by adding 4X SDS loading buffer. T he reaction mixtures were then s eparated via SDS - PAG E, dried, and exposed using a phosphor imaging screen. Quantification was performed using a Personal Molecular Imager and Quantity One 1- D Analysis Software. Analogous inhibition assays were conducted on p urified GR K2 wit h a t ub ulin conce ntrat ion of 1 μ M. Data ana lysis was perf orme d usin g Graph Pa d Pr ism, and IC50 values wer e calculated based on three- parameter dose- dependent curves (with a Hill coefficient fixed at 1) plotting phosphate transfer against inhibitor concentration. At least three replicates were conducted to determine the mean and standard deviation of IC50 values as published previously . […]
(§6) (6) The final models w ere validated with MolProbity prior to depos ition along with structure factors in the Protein Data Bank. Atomic figures were created with Py mol (7). Cr ystallographic statistics are reported in Supplemental Table 1. Coordinates for inh ib itor 6t (GRL-098- 22) w ere deposited in the Protein Data Bank, with accession code 9BR K.
(§7) 1. Y. Chen, A. Sonawane, R. Manda, R. K. G adi, J. J. G. Tesmer, A. K. Ghosh. Development of a new class of potent and highly select ive G protein- coupled r eceptor kinase 5 inhibitors and structural insight from crystal structures of inhibitor complexes. Eur. J. Med. Chem. 2024, 264, 115931.
(§8) 2. D. T. Lodowski, V. M. T esmer, J. L. Benovic, J. J. Tesmer. The structure of G protein- coupled receptor kinase (GRK)-6 defines a second lineage of GRKs. J. Bio l. C he m. 2006, 281,16785- 16793.

The target of experiment [2] is T2, GRK6 (Homo sapiens, UniProt P43250, C561S/C562S/C565S/T10A).
T2 construct: His tag (inferred: purified by the GRK5 protocol, which starts with nickel-NTA); made in house; host or cells: Sf9 insect cells
The experiment in a line: GRK6 kinase inhibition assay, phosphorylation of tubulin ([γ-32P]-ATP). As to conditions: for Selectivity GRK5/GRK6: fold selectivity for GRK6 over GRK5; for IC50: phosphorylation of the soluble substrate tubulin, ± standard deviation from 3 to 4 independent experiments. The protocol:
as §1, §2, §3, §4, §5, §6, §7, §8

Experiment [3] concerns the target T3, GRK2 (Homo sapiens, UniProt P25098).
T3 construct: made in house
T3 sequence (P25098 1-689): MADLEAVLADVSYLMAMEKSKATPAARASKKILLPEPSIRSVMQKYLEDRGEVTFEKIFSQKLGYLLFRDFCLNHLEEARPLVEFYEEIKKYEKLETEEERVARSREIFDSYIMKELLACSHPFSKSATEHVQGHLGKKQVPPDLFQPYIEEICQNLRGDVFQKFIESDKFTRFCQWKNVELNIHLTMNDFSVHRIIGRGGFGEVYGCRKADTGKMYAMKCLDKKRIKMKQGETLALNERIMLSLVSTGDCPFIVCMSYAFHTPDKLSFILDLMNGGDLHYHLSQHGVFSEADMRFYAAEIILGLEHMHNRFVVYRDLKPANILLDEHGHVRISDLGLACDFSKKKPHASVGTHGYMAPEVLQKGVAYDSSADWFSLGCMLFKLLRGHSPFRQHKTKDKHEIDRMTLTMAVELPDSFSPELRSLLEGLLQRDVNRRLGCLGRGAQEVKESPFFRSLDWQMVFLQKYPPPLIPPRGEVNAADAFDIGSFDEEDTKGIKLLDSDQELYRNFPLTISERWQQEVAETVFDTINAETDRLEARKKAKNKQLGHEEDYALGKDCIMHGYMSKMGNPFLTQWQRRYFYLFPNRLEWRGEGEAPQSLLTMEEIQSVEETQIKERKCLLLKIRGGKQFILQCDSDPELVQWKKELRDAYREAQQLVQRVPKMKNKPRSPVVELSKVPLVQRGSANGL
Kind of experiment: GRK2 kinase inhibition assay, phosphorylation of tubulin ([γ-32P]-ATP). Conditions: for IC50: phosphorylation of the soluble substrate tubulin, ± standard deviation from 3 to 4 independent experiments. Here is the method: as §1, §2, §3, §4, §5, §6, §7, §8

Each structure is given as a SMILES string. Entries after “also recorded” stand apart in the source; their conditions may differ. A value given as a limit tells only on which side of the number the result lay.

What is called IC50 is the point on the concentration scale where inhibition reaches its midpoint. A high value points to weaker potency.

T1 sequence (P34947 whole entry, the tested form may be a part): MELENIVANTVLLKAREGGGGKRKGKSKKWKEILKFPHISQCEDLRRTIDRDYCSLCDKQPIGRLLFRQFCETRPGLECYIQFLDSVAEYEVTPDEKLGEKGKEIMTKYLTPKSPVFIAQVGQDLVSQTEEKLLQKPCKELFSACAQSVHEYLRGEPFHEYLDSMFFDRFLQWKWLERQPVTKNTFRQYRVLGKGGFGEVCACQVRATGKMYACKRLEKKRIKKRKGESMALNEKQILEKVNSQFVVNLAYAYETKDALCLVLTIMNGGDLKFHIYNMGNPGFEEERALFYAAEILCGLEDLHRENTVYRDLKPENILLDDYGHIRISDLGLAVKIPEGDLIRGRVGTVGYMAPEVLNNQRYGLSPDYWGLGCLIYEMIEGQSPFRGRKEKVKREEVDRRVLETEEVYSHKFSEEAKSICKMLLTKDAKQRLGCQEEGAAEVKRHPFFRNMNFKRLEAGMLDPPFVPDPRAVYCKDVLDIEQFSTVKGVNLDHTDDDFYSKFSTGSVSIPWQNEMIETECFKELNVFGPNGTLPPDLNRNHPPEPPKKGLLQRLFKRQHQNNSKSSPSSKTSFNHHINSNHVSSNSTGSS
T2 sequence (P43250 whole entry T10A/C561S/C562S/C565S): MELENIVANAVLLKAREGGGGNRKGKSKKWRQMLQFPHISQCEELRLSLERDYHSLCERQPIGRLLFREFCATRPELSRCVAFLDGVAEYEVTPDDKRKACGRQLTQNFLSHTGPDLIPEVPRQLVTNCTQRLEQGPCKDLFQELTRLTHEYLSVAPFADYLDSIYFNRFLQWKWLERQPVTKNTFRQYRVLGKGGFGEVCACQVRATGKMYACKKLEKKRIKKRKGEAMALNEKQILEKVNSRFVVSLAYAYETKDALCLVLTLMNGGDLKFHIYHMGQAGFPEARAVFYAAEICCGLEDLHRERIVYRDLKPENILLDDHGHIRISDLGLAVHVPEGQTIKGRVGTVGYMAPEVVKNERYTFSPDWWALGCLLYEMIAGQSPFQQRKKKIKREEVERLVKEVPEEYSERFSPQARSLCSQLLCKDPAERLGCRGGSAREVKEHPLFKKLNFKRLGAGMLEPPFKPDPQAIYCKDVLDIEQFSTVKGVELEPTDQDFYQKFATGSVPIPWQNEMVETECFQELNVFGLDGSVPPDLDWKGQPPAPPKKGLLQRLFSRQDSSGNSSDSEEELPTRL

Turning to `CC(=O)N1CCCC1C(=O)Nc1c(C)[nH]c(C=C2C(=O)Nc3ccc(C(=O)NC(C)c4ccc(F)cc4)cc32)c1C` [6f, ((Z)‐3‐((4‐((S)‐1‐Acetylpyrrolidine‐2‐Carboxamido)‐3,5‐Dimethyl‐1H‐Pyrrol‐2‐Yl)Methylene)‐N‐((R)‐1‐(4‐Fluorophenyl)Ethyl)‐2‐Oxoindoline‐5‐Carboxamide], the “Selectivity GRK2/GRK5” value in experiment [1] amounted to 15 fold. Further, the values for the IC50 in experiment [1], in experiment [2] and in experiment [3] were 0.06 ± 0.02 µM, 0.031 ± 0.02 µM and 0.9 ± 0.3 µM, respectively. Also, the “Selectivity GRK5/GRK6” value in experiment [2] is 2 fold.

In the case of `Cc1[nH]c(/C=C2\C(=O)Nc3ccc(C(=O)N[C@H](C)c4ccc(F)cc4)cc32)c(C)c1NC(=O)[C@@H]1CCC(=O)N1` [6a, (Z)‐3‐((3,5‐Dimethyl‐4‐((S)‐5‐Oxopyrrolidine‐2‐Carboxamido)‐1H‐Pyrrol‐2‐Yl)Methylene)‐N‐((R)‐1‐(4‐Fluorophenyl)Ethyl)‐2‐Oxoindoline‐5‐Carboxamide], in experiment [1], the “Selectivity GRK2/GRK5” value is 26 fold and the IC50 was determined as 0.027 ± 0.006 µM. Besides, in experiment [2], the “Selectivity GRK5/GRK6” value is 1 fold and the IC50 came out at 0.02 ± 0.01 µM. The same compound showed an IC50 in experiment [3] of 0.71 ± 0.4 µM.

Regarding `Cc1[nH]c(/C=C2\C(=O)Nc3ccc(C(=O)N[C@H](C)c4ccc(F)cc4)cc32)c(C)c1NC(=O)[C@H]1CN(C(=O)OC(C)(C)C)CCN1` [6s, Tert‐Butyl(R)‐3‐((5‐(((Z)‐5‐(((R)‐1‐(4‐Fluorophenyl)Ethyl)Carbamoyl)‐2‐Oxoindolin‐3‐Ylidene)Methyl)‐2,4‐Dimethyl‐1H‐Pyrrol‐3‐Yl)Carbamoyl)Piperazine‐1‐Carboxylate], in experiment [1], the “Selectivity GRK2/GRK5” value was found to be 430 fold and it took 0.081 ± 0.01 µM to reach half-maximal inhibition (IC50). In experiment [2], the “Selectivity GRK5/GRK6” value worked out at 1 fold and the IC50 was determined as 0.06 ± 0.02 µM. The IC50 in experiment [3] turned out to be 35 ± 9.4 µM.

Consider `Cc1[nH]c(/C=C2\C(=O)Nc3ccc(C(=O)N[C@H](C)c4ccc(F)cc4)cc32)c(C)c1NC(=O)[C@@H]1CCCNC1` [6r, (Z)‐3‐((3,5‐Dimethyl‐4‐((R)‐Piperidine‐3‐Carboxamido)‐1H‐Pyrrol‐2‐Yl)Methylene)‐N‐((R)‐1‐(4‐Fluorophenyl)Ethyl)‐2‐Oxoindoline‐5‐Carboxamide], for which, in experiment [1], the “Selectivity GRK2/GRK5” value is 20 fold and the IC50 is 0.03 ± 0.002 µM. Also, in experiment [2], the “Selectivity GRK5/GRK6” value turned out to be 1 fold and 0.06 ± 0.02 µM corresponded to half-maximal inhibition (IC50). Moreover, in experiment [3], the IC50 came to 0.62 ± 0.3 µM.

`Cc1[nH]c(/C=C2\C(=O)Nc3ccc(C(=O)N[C@H](C)c4ccc(F)cc4)cc32)c(C)c1NC(=O)[C@@H]1CNCCN1` [6v, (Z)‐3‐((3,5‐Dimethyl‐4‐((S)‐Piperazine‐2‐Carboxamido)‐1H‐Pyrrol‐2‐Yl)Methylene)‐N‐((R)‐1‐(4‐Fluorophenyl)Ethyl)‐2‐Oxoindoline‐5‐Carboxamide]: the “Selectivity GRK2/GRK5” value in experiment [1] came out at 10 fold. The figures for the IC50 in experiment [1], in experiment [2] and in experiment [3] were 0.016 ± 0.0005 µM, 0.026 ± 0.02 µM and 0.19 ± 0.1 µM, respectively. Also, in experiment [2], the “Selectivity GRK5/GRK6” value worked out at 1 fold.

For the compound `Cc1[nH]c(/C=C2\C(=O)Nc3ccc(C(=O)N[C@H](C)c4ccc(F)cc4)cc32)c(C)c1NC(=O)[C@H]1CCCN(C(=O)OC(C)(C)C)C1` [6o, Tert‐Butyl(S)‐3‐((5‐(((Z)‐5‐(((R)‐1‐(4‐Fluorophenyl)Ethyl)Carbamoyl)‐2‐Oxoindolin‐3‐Ylidene)Methyl)‐2,4‐Dimethyl‐1H‐Pyrrol‐3‐Yl)Carbamoyl)Piperidine‐1‐Carboxylate], in experiment [1], the “Selectivity GRK2/GRK5” value came out at 66 fold and half-maximal inhibition (IC50) required 0.094 ± 0.01 µM. In experiment [2], the “Selectivity GRK5/GRK6” value was 1 fold and the IC50 stood at 0.15 ± 0.06 µM. In experiment [3], this compound returned an IC50 of 6.2 ± 3 µM.

For the compound `Cc1[nH]c(/C=C2\C(=O)Nc3ccc(C(=O)N[C@H](C)c4ccc(F)cc4)cc32)c(C)c1NC(=O)[C@H]1CCCNC1` [6q, (Z)‐3‐((3,5‐Dimethyl‐4‐((S)‐Piperidine‐3‐Carboxamido)‐1H‐Pyrrol‐2‐Yl)Methylene)‐N‐((R)‐1‐(4‐Fluorophenyl)Ethyl)‐2‐Oxoindoline‐5‐Carboxamide], in experiment [1], the “Selectivity GRK2/GRK5” value is listed as 4 fold and the IC50 was determined as 0.03 ± 0.02 µM. Also, in experiment [2], the “Selectivity GRK5/GRK6” value is recorded as 2 fold and the IC50 came to 0.016 ± 0.003 µM. The midpoint of inhibition in experiment [3], the IC50, lay at 0.11 ± 0.02 µM.

Consider `Cc1[nH]c(C=C2C(=O)Nc3ccc(C(=O)NC(C)c4ccc(F)cc4)cc32)c(C)c1NC(=O)C1C=CCN1C(=O)OC(C)(C)C` [6i, Tert‐Butyl(S)‐2‐((5‐(((Z)‐5‐(((R)‐1‐(4‐Fluorophenyl)Ethyl)Carbamoyl)‐2‐Oxoindolin‐3‐yl‐ Idene)Methyl)‐2,4‐Dimethyl‐1H‐Pyrrol‐3‐Yl)Carbamoyl)‐2,5‐Dihydro‐1H‐Pyrrole‐1‐Carboxylate], for which, in experiment [1], the “GRK5 IC50 (in words)” value was “sub‐micromolar; also recorded: low micromolar range”, the “Selectivity GRK2/GRK5” value was 130 fold and the IC50 came to 0.92 ± 0.5 µM. Further, in experiment [2], the “GRK6 IC50 (in words)” value was “sub‐micromolar; also recorded: low micromolar range”, the “Selectivity GRK5/GRK6” value is on record as 2 fold and the IC50 amounted to 0.5 ± 0.2 µM. Further, in experiment [3], the “activity against GRK2 (in words)” value was “little to no activity” and inhibition was half-maximal at 120 ± 50 µM (IC50).

On to `Cc1[nH]c(/C=C2\C(=O)Nc3ccc(C(=O)N[C@H](C)c4ccc(F)cc4)cc32)c(C)c1NC(=O)[C@@H]1CCCCN1C(=O)OC(C)(C)C` [6n, Tert‐Butyl(S)‐2‐((5‐(((Z)‐5‐(((R)‐1‐(4‐Fluorophenyl)Ethyl)Carbamoyl)‐2‐Oxoindolin‐3‐Ylidene)Methyl)‐2,4‐Dimethyl‐1H‐Pyrrol‐3‐Yl)Carbamoyl)Piperidine‐1‐Carboxylate], for which the “Selectivity GRK2/GRK5” value in experiment [1] amounted to 3 fold. Further, the IC50 in experiment [1] was found to be 33 ± 6 µM; in experiment [2], 0.9 ± 0.8 µM; in experiment [3], 100 ± 70 µM. In experiment [2], the “Selectivity GRK5/GRK6” value is recorded as 37 fold.

In the case of `Cc1[nH]c(/C=C2\C(=O)Nc3ccc(C(=O)N[C@H](C)c4ccc(F)cc4)cc32)c(C)c1NC(=O)[C@@H]1CN(C(=O)OC(C)(C)C)CCN1` [6t, Tert‐Butyl(S)‐3‐((5‐(((Z)‐5‐(((R)‐1‐(4‐Fluorophenyl)Ethyl)Carbamoyl)‐2‐Oxoindolin‐3‐Ylidene)Methyl)‐2,4‐Dimethyl‐1H‐Pyrrol‐3‐Yl)Carbamoyl)Piperazine‐1‐Carboxylate], in experiment [1], the “Selectivity GRK2/GRK5” value is above 1600 fold and the IC50 was found to be 0.6 ± 0.1 µM. Besides, in experiment [2], the “Selectivity GRK5/GRK6” value is listed as 7 fold and the IC50 is 0.09 µM. Moreover, in experiment [3], the 50% inhibitory concentration (IC50) is above 1000 µM.
